What was measured:
[1] = system: hairless mice, UVB irradiation; assay: Skin moisture content by CORNEOMETER CM 825, oral forced administration (Example 3); format: in vivo; conditions: 20 mg/ml collagen solution, 0.1 ml/10 g body weight orally daily, UV-irradiated (collagen (+) group)
Experimental: Skin moisture content was measured using CORNEOMETER® CM825 (manufactured by COURAGE+KHAZAKA electronic GMBH) twice a week, the measurement being carried out by contacting a probe onto a lumbar region of a mouse prior to UVB irradiation. The measurements were conducted five times, and the average of them was designated as a measured value.
An administration sample employed a mangosteen pericarp formulation. Specifically, a formulation having a ratio of a mangosteen pericarp extract:gum arabic=1:1 was used. One having only gum arabic was used as a control, and collagen was used as a positive control. Solutions having respective concentrations were prepared. A solution having a concentration of 0.1 ml/10 g body weight was orally administered every day during the rearing period by using a stomach tube. Two kinds (a high concentration (24 mg/ml) and a low concentration (12 mg/ml)) of a solution containing a mangosteen pericarp extract were prepared. Then, 24 mg/ml of a gum arabic solution and 20 mg/ml of a collagen solution were prepared.
After 1 week of acclimatization, grouping was conducted based on skin moisture content and viscoelasticity. […]

[2] = system: hairless mice of a photoaging model; assay: Histological analysis of HE-stained dorsal skin (epidermis thickness, edema), mixed-diet administration (Example 2); format: in vivo, Hos: HR-1 hairless mice; conditions: 0.24% glucosamine-mixed diet
type I collagen = assay: Quantification of type I collagen in skin extract by SDS-PAGE and Western blotting (Example 2); format: in vivo, Hos: HR-1 hairless mice; conditions: 0.24% glucosamine-mixed diet, UV-irradiated
Experimental: After the grouping, UV-irradiated groups were irradiated with UV light three times a week. Specifically, for the first week, 1 minute of UV irradiation was carried out. For the second week, 2 minutes of UV irradiation, and for the third and fourth week, 3 minutes of UV irradiation were conducted. From the fourth week to the time of dissection completed, 4 minutes of UV irradiation were carried out.
A UVB lump GL20SE (SANKYO DENKI) was used to carry out UV irradiation having irradiation intensity of 0.3 mW/cm^2. […] Irradiation intensity was adjusted by using a digital ultraviolet light intensity meter, UV-340 (AS ONE Corporation). During irradiation, mice were left for one and a half hour in an individualized cage having a size of 9 cm×5 cm×4 cm. In order to decrease a difference in irradiation intensity for respective cages, the mice were irradiated while subjected to a rotation in every occasion.
A frozen and crushed skin was degreased using methanol for 24 hours. Then, an appropriate amount of PBS (−) containing protease inhibitors was added, and the sample was stirred with a rotator and washed twice to remove serum components, etc. […]

[3] = system: hairless mice of a photoaging model; assay: Skin moisture content by CORNEOMETER CM825, mixed-diet administration (Example 2); format: in vivo, Hos: HR-1 hairless mice; conditions: 0.24% glucosamine-mixed diet
carbonyl proteins = assay: Quantification of carbonyl proteins in skin tissue by Oxyblot Western blotting (Example 2); format: in vivo, Hos: HR-1 hairless mice; conditions: 0.24% glucosamine-mixed diet, UV-irradiated
Experimental: After one week of acclimatization, 54 six-week-old male Hos: HR-1 hairless mice were used in experiments. The below-described diet was used, and the mice were reared under conditions at 25° C. while keeping a free access to food and water. In addition, during measurements of the skin moisture content, a humidity meter was used to determine humidity in an animal room. All experiments were conducted under approval (No. 19-76) of Animal Care and Use Committee of Tokyo University of Agriculture and Technology.
Preparation of an administration diet was ordered to Oriental Yeast Co., Ltd. First, 0.072% mangosteen pericarp extract-mixed diet and 0.15% mangosteen pericarp extract-mixed diet were used. In addition, 0.24% glucosamine-mixed diet was used as a positive control, and CRF-1 diet was used as a negative control. A daily amount of mangosteen pericarp extract ingested was set to 120 mg/kg body weight for the 0.072% group, and set to 250 mg/kg body weight for the 0.15% group as a rough guideline.
A study schedule is illustrated in FIG. 1. A study period was set to 8 weeks, and the study was carried out from October to December in 2007. […] The total irradiation amount was 1.35 J. In addition, moisture content and an amount of food ingested were measured twice a week, and body weight was measured once a week. […]

hyaluronic acid (HA) = assay: Identification of GAG in skin extract by cellulose acetate membrane electrophoresis (Example 2); format: in vivo, Hos: HR-1 hairless mice; conditions: 0.24% glucosamine-mixed diet, UV-irradiated
Experimental: After the grouping, UV-irradiated groups were irradiated with UV light three times a week. Specifically, for the first week, 1 minute of UV irradiation was carried out. For the second week, 2 minutes of UV irradiation, and for the third and fourth week, 3 minutes of UV irradiation were conducted. From the fourth week to the time of dissection completed, 4 minutes of UV irradiation were carried out. The total irradiation amount was 1.35 J. In addition, moisture content and an amount of food ingested were measured twice a week, and body weight was measured once a week.
A UVB lump GL20SE (SANKYO DENKI) was used to carry out UV irradiation having irradiation intensity of 0.3 mW/cm^2. […] Irradiation intensity was adjusted by using a digital ultraviolet light intensity meter, UV-340 (AS ONE Corporation). During irradiation, mice were left for one and a half hour in an individualized cage having a size of 9 cm×5 cm×4 cm. […]

| Compound | skin moisture content at week 7 [1] | thickness of the epidermis compared to control (−) ([2]; UV-irradiated) | thickness of the epidermis ([2]; UV-irradiated (GlcN (+) group)) [μm] | type I collagen band intensity (control (−) set to 1; average of α-chain and β-chain) (type I collagen) | skin moisture content at week 8 ([3]; UV-irradiated (GlcN (+) group)) | skin moisture content compared to control (+) ([3]; UV-irradiated, weeks 7 and 8) | carbonyl protein band intensity (control (−) set to 1) (carbonyl proteins) | band intensity of HA (control (−) set to 1) (hyaluronic acid (HA)) |
| --- | --- | --- | --- | --- | --- | --- | --- | --- |
| collagen | 68.54±2.91 |  |  |  |  |  |  |  |
| N[C@H]1C(O)O[C@H](CO)[C@@H](O)[C@@H]1O (some centres unmarked) [GlcN, glucosamine] |  | significant increase in the thickness of the epidermis | 39.46±9.56 | 1.25 | 62.96±2.78 | significant increase | 1.63 | 0.58 |

Reference: patent US20120015063A1, “COMPOSITION FOR TREATMENT AND/OR PREVENTION OF SKIN DISORDER” (priority 2009, published 2012)
